Test: xn = mol fraction of the nth substance listed

CN(C)C=O + CC(C)O
viscosity [mPa·s], 101 kPa
Conditions | 298.15 K | 303.15 K | 308.15 K | 313.15 K | 318.15 K | 323.15 K
x1 = 0.0879 | 1.65 | 1.44 | 1.3 | 1.14 | – | –
x1 = 0.0995 | – | 1.385 | 1.237 | 1.096 | 0.9913 | 0.88
x1 = 0.1606 | 1.46 | 1.28 | 1.16 | 1.03 | – | –
x1 = 0.1992 | – | 1.166 | 1.057 | 0.9438 | 0.8597 | 0.778
x1 = 0.2389 | 1.34 | 1.18 | 1.08 | 0.95 | – | –
x1 = 0.3011 | – | 1.034 | 0.9443 | 0.8524 | 0.7903 | 0.7214
x1 = 0.3433 | 1.24 | 1.1 | 1.01 | 0.9 | – | –
x1 = 0.4009 | – | 0.9507 | 0.8752 | 0.8075 | 0.7462 | 0.6851
x1 = 0.44 | 1.16 | 1.05 | 0.96 | 0.87 | – | –
x1 = 0.4512 | 1.297 | – | – | – | – | –
x1 = 0.4737 | – | 0.9177 | 0.8467 | 0.7863 | 0.7252 | 0.6742
x1 = 0.5597 | 1.07 | 0.98 | 0.9 | 0.82 | – | –
x1 = 0.5987 | – | 0.8585 | 0.7964 | 0.7362 | 0.6938 | 0.6453
x1 = 0.6504 | 1.01 | 0.94 | 0.86 | 0.8 | – | –
x1 = 0.7011 | – | 0.8282 | 0.771 | 0.7187 | 0.6776 | 0.6312
x1 = 0.735 | 0.96 | 0.89 | 0.83 | 0.76 | – | –
x1 = 0.7991 | – | 0.796 | 0.7476 | 0.6985 | 0.6578 | 0.6196
x1 = 0.8522 | 0.89 | 0.83 | 0.78 | 0.72 | – | –
x1 = 0.8995 | – | 0.7844 | 0.7374 | 0.6874 | 0.6507 | 0.614
x1 = 0.9422 | 0.84 | 0.79 | 0.74 | 0.69 | – | –

ClC(Cl)=C(Cl)Cl + CC(C)O
Conditions | viscosity [mPa·s]
298.15 K, 101.3 kPa, x1 = 0.0763 | 1.855
298.15 K, 101.3 kPa, x1 = 0.6349 | 1.025
303.15 K, 101.33 kPa, x1 = 0.1028 | 1.473
303.15 K, 101.33 kPa, x1 = 0.2072 | 1.251
303.15 K, 101.33 kPa, x1 = 0.307 | 1.102
303.15 K, 101.33 kPa, x1 = 0.3926 | 1.007
303.15 K, 101.33 kPa, x1 = 0.5027 | 0.92
303.15 K, 101.33 kPa, x1 = 0.6105 | 0.864
303.15 K, 101.33 kPa, x1 = 0.6982 | 0.838
303.15 K, 101.33 kPa, x1 = 0.7882 | 0.823
303.15 K, 101.33 kPa, x1 = 0.8976 | 0.814

O=[N+]([O-])c1ccccc1 + CCC(C)=O
303.15 K, 101 kPa
Conditions | viscosity [mPa·s]
x2 = 0.1487 | 1.32
x2 = 0.3244 | 1.039
x2 = 0.4126 | 0.925
x2 = 0.4992 | 0.82
x2 = 0.7145 | 0.607
x2 = 0.78 | 0.55

CC(C)CCl + CCC(C)O
viscosity [mPa·s], 101.33 kPa
Conditions | x1 = 0.1077 | x1 = 0.2064 | x1 = 0.3079 | x1 = 0.4066 | x1 = 0.5036 | x1 = 0.648 | x1 = 0.7018 | x1 = 0.805 | x1 = 0.8972
298.15 K | 1.946 | 1.381 | 1.046 | 0.8335 | 0.7002 | 0.5685 | 0.5343 | 0.4815 | 0.4478
313.15 K | 1.254 | 0.9644 | 0.7565 | 0.6299 | 0.5461 | 0.4591 | 0.4357 | 0.4015 | 0.3778

ClC(Cl)=C(Cl)Cl + CCC(C)O
viscosity [mPa·s]
Conditions | x1 = 0.1024 | x1 = 0.213 | x1 = 0.3172 | x1 = 0.4016 | x1 = 0.5142 | x1 = 0.6125 | x1 = 0.7018 | x1 = 0.7817 | x1 = 0.8032 | x1 = 0.9108
298.15 K, 101.3 kPa | – | – | – | – | – | – | – | 1.005 | – | –
303.15 K, 101.33 kPa | 1.918 | 1.508 | 1.263 | 1.127 | 1.005 | 0.93 | 0.884 | – | 0.852 | 0.822

O=[N+]([O-])c1ccccc1 + CCC(C)O
viscosity [mPa·s], 100 kPa
Conditions | x1 = 0.081 | x1 = 0.16 | x1 = 0.24 | x1 = 0.35 | x1 = 0.4949 | x1 = 0.56 | x1 = 0.65 | x1 = 0.74 | x1 = 0.8205 | x1 = 0.9399
293.15 K | 3.138 | 2.694 | 2.349 | 2.041 | 1.854 | 1.838 | 1.859 | 1.915 | 1.975 | 2.078
298.15 K | 2.591 | 2.246 | 1.983 | 1.74 | 1.619 | 1.612 | 1.647 | 1.719 | 1.78 | 1.861
303.15 K | 2.232 | 1.989 | 1.801 | 1.632 | 1.528 | 1.521 | 1.539 | 1.58 | 1.638 | 1.708
308.15 K | 1.905 | 1.731 | 1.598 | 1.476 | 1.408 | 1.405 | 1.422 | 1.459 | 1.498 | 1.577
313.15 K | 1.627 | 1.489 | 1.384 | 1.289 | 1.248 | 1.252 | 1.275 | 1.32 | 1.379 | 1.457
318.15 K | 1.411 | 1.309 | 1.233 | 1.169 | 1.147 | 1.155 | 1.18 | 1.224 | 1.274 | 1.351
323.15 K | 1.233 | 1.159 | 1.104 | 1.058 | 1.044 | 1.055 | 1.081 | 1.122 | 1.168 | 1.253

CCCCCCCCCCCCCC + CCCC(C)O
viscosity [mPa·s], 101.33 kPa
Conditions | x1 = 0.0999 | x1 = 0.2002 | x1 = 0.3001 | x1 = 0.3987 | x1 = 0.5009 | x1 = 0.6004 | x1 = 0.6996 | x1 = 0.8014 | x1 = 0.9002
293.15 K | 2.923 | 2.557 | 2.314 | 2.191 | 2.117 | 2.1 | 2.114 | 2.141 | 2.177
303.15 K | 2.381 | 2.111 | 1.928 | 1.823 | 1.752 | 1.741 | 1.748 | 1.76 | 1.787
313.15 K | 1.742 | 1.58 | 1.476 | 1.41 | 1.391 | 1.392 | 1.41 | 1.441 | 1.472
323.15 K | 1.362 | 1.266 | 1.192 | 1.152 | 1.148 | 1.153 | 1.171 | 1.21 | 1.24

From the CheMixHub viscosity set
